Assay [1] concerns the target NanoLuc VHL fusion protein (Homo sapiens (Human), UniProt P40337). The assay can be described thus: VHL HEK-293 BRET Assay (NanoBRET Target Engagement). The format is cell-based. Particulars: geometric mean where more than one measurement. On the procedure: The VHL NanoBRET™ Target Engagement Assay analyzes the apparent affinity of test compounds for VHL in cells by competitive displacement of a VHL NanoBRET™ tracer reversibly bound to a NanoLuc® VHL fusion protein stably expressed in the cells. Test compounds were transferred to the assay plate (384 Well White Non-Binding Corning Assay Plates (Corning-3574)) using an Echo 555 Liquid Handler (Labcyte) in 2.5 nL increments and, as appropriate, intermediate stock concentrations of compounds, in order to prepare a titration series. 50 nL of control compound (10 mM; parental unlabeled VHL antagonist; see structure below) and 50 nL of DMSO (negative control) were dispensed into the appropriate control wells. DMSO was backfilled to a final volume of 50 nL as required. 50 nl per well of 1 mM VHL NanoBRET™ Tracer in DMSO (NanoBRET™ Tracer-PEG2-590 (see structure below)) was transferred into each well using an Echo 555 (ultimately yielding a final concentration of 1 uM). HEK 293 RT VHL-NanoLuc® stable cells were cultured in DMEM High Glucose with Pyruvate, 10% fetal bovine serum, 2 mg/mL of Geneticin Selective Antibiotic (50 mg/ml) and 2 mM HEPES (1 M). Cells were seeded in Opti-MEM (Life Technologies-11058-021), 1.7×10^5 cells/mL, 40 μl per well into the assay plate, centrifuged at 500 rpm for 30 seconds and incubated for 2 hours. Max Signal control wells consisted of DMSO only treated wells. Minimum Signal control wells contained of 10 uM parental unlabeled VHL antagonist (control compound—see structure below). 3× Complete Substrate plus Inhibitor Solution was prepared in Opti-MEM (consists of a 1:166 dilution of NanoBRET™ Nano-Glo® Substrate plus a 1:500 dilution of Extracellular NanoLuc® Inhibitor in Opti-MEM), and 20 ul was dispensed into each well of the 384-well plate and centrifuged at 1000 rpm for 1 minute, then incubated for 2 minutes at room temperature. Background Signal control wells were prepared without tracer for background correction steps. Plates were read using a PerkinElmer Envision Reader (model 2104-0020) equipped with Luminescence option (Mirror: BRET2 Enh (PE Barcode 659), Emission Filter: Omega 610LP (Barcode 504), 2nd Emission Filter: Umbelliferone 460 (Barcode 207), Measurement height: 6.5 mm, Measurement time: 1 s). The raw BRET ratio values were calculated by dividing the acceptor emission value (610 nm) by the donor emission value (460 nm) for each sample. To correct for background, the BRET ratio in the absence of tracer (average of no-tracer control samples) was subtracted from the BRET ratio of each sample. Raw BRET units were converted to milliBRET units (mBU) by multiplying each raw BRET value by 1,000. The normalized NanoBRET™ signal was calculated relative to the Max Signal control wells (DMSO treated control wells) and the Minimum Signal control wells. Percentage inhibition was calculated relative to the Minimum Signal control and Maximum Signal control wells. IC50 values were derived by four parameter curve fitting using the Robust method.
For orientation: BRET reads energy transfer from a luciferase to a nearby fluorophore.

Assay [2] addresses VHL co-expressed with Elongins B and C (Homo sapiens (Human), UniProt P40337). The assay can be described thus: Surface Plasmon Resonance Assay. Type of assay: binding. The following applies: SPR measured VHL affinity; geometric mean where more than one measurement. Put shortly: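 Binding kinetics by SPR at 20 °C: compound concentration series run from low to high at 80 μL/min over VHL–Elongin B/C complex, immobilized via avidin tag on SA chip. Buffer was HEPES pH 7.2 with 150 mM NaCl, TCEP, Tween 20, PEG3350 and 2% DMSO; association/dissociation times adjusted per compound.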

The target in another assay is VHL Elongin B/C complex (Homo sapiens (Human), UniProt P40337). The assay can be described thus: Fluorescence Polarization (FP) VHL Binding Assay. The following applies: VHL binding, FP assay; geometric mean where more than one measurement. Put shortly: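 Readout is polarization of a TAMRA-coupled VHL ligand (1.67 nM final) displaced from the VHL(E55-D213)/Elongin B/C complex (2.64 nM final) after 1 h incubation at room temperature in pH 8.0 Tris buffer with 1% DMSO. Data normalized to no-VHL and compound-free controls, with compound fluorescence subtracted, and fitted by four-parameter curve for IC50.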
VHL Elongin B/C complex, sequence (P40337 whole entry, looked up): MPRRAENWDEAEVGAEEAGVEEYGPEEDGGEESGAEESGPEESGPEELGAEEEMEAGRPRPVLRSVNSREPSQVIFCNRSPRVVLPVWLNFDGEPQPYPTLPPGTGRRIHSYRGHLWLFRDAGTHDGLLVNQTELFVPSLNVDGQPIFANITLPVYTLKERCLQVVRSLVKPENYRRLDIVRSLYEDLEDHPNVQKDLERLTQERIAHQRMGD
VHL Elongin B/C complex, sequence (Q15370 whole entry partner, looked up): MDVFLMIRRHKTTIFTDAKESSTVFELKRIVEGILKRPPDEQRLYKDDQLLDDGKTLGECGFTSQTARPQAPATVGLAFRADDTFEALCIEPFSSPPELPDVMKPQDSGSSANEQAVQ
VHL Elongin B/C complex, sequence (Q15369 whole entry partner, looked up): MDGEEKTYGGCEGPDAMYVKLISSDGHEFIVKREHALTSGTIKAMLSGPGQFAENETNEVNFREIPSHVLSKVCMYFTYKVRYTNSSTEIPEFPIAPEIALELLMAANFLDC
(In general: In fluorescence polarisation assays a small probe gives low polarisation when free and higher when bound to something large.)

Structures are written as SMILES. Where only a bound is given, the exact number is not on record here.

VHL co-expressed with Elongins B and C, sequence (P40337 whole entry, looked up): as the sequence (P40337 whole entry, looked up) above
VHL co-expressed with Elongins B and C, sequence (Q15370 whole entry partner, looked up): as the sequence (Q15370 whole entry partner, looked up) above
VHL co-expressed with Elongins B and C, sequence (Q15369 whole entry partner, looked up): as the sequence (Q15369 whole entry partner, looked up) above
NanoLuc VHL fusion protein, sequence (P40337 whole entry, looked up, the tested form may be a part): as the sequence (P40337 whole entry, looked up) above
NanoLuc VHL fusion protein, sequence (Q15370 whole entry partner, looked up, the tested form may be a part): as the sequence (Q15370 whole entry partner, looked up) above
NanoLuc VHL fusion protein, sequence (Q15369 whole entry partner, looked up, the tested form may be a part): as the sequence (Q15369 whole entry partner, looked up) above

Regarding `Cc1ncsc1-c1ccc([C@]2(C)NC(C3C[C@@H](O)CN3C(=O)C(c3cnn(C)c3)C(C)C)=NC2=O)cc1` (single isomer, unassigned) [Example 110.4], the figures for the half-maximal inhibitory concentration (IC50) (in assay [1]; on VHL Elongin B/C complex) were no less than 100 µM and no less than 400 µM, respectively. For the same compound, in assay [2], the Kd (commonly the equilibrium constant for the complex coming apart) was found to be 150 µM.
Take `Cc1ncsc1-c1ccc([C@]2(C)NC(C3C[C@@H](O)CN3C(=O)[C@@H](NC(=O)C3(C#N)CC3)C(C)(C)C)=NC2=O)cc1` (single isomer, unassigned) [Example 111.1]: the IC50 – broadly, the concentration that inhibits the measured activity by half – in assay [1] is no less than 100 µM; at VHL Elongin B/C complex, 111 µM. Also, the Kd in assay [2] came out at 31.8 µM.
As for `Cc1ncsc1-c1ccc([C@]2(C)NC(C3C[C@@H](O)CN3C(=O)[C@@H](NC(=O)C3(C#N)CC3)C(C)(C)C)=NC2=O)cc1` (single isomer, unassigned) [Example 111.2], the IC50 in assay [1] came to 5.11 µM; at VHL Elongin B/C complex, 4.97 µM. This compound also came in with a Kd in assay [2] of 1.86 µM.
The corresponding values for `Cc1ncsc1-c1ccc([C@]2(C)NC(C3C[C@@H](O)CN3C(=O)[C@@H]3CCCN3S(C)(=O)=O)=NC2=O)cc1` (single isomer, unassigned) [Example 112.1] are 66.4 µM, 23.3 µM and 12.1 µM.
The corresponding values for `CCN1N=C([C@@H]2C[C@@H](O)CN2C(=O)C(c2cc(C)no2)C(C)C)NC1(C)C` (single isomer, unassigned) [Example 115.1] are 100 µM, no less than 400 µM and 150 µM.
As to `CCN1N=C([C@@H]2C[C@@H](O)CN2C(=O)C(c2cc(C)no2)C(C)C)NC1(C)C` (single isomer, unassigned) [Example 115.2], the IC50 worked out at 25.7 µM in assay [1] and 40.7 µM at VHL Elongin B/C complex. In assay [2], this compound registered a Kd of 4.03 µM.
The corresponding values for `Cc1ncsc1-c1ccc([C@]2(C)NC(C3C[C@@H](O)CN3C(=O)C(c3cc(O)no3)C(C)C)=NC2=O)cc1` (single isomer, unassigned) [Example 116.1] are 100 µM, 4.35 µM and 5.1 µM.
Consider `Cc1ncsc1-c1ccc([C@]2(C)NC(C3C[C@@H](O)CN3C(=O)C(c3cc(O)no3)C(C)C)=NC2=O)cc1` (single isomer, unassigned) [Example 116.4], for which the values for the half-inhibitory concentration (IC50) (in assay [1]; at VHL Elongin B/C complex) were 100 µM and 35.4 µM, respectively. In assay [2], this compound came in with a Kd of 5.3 µM.
As for `Cc1noc(C(C(=O)N2C[C@H](O)CC2C2=NC(=O)[C@](C)(c3ccc(-c4scnc4C)cc3)N2)C(C)C)n1` (single isomer, unassigned) [Example 117.1], the IC50 in assay [1] was 100 µM; on VHL Elongin B/C complex, no less than 400 µM. Besides, in assay [2], the Kd turned out to be 155 µM.
As for `Cc1noc(C(C(=O)N2C[C@H](O)CC2C2=NC(=O)[C@](C)(c3ccc(-c4scnc4C)cc3)N2)C(C)C)n1` (single isomer, unassigned) [Example 117.2], the IC50 in assay [1] was determined as 1.9 µM; on VHL Elongin B/C complex, 1.62 µM. The same compound registered a Kd in assay [2] of 0.625 µM.
The matching figures for `Cc1noc(C(C(=O)N2C[C@H](O)CC2C2=NC(=O)[C@](C)(c3ccc(-c4scnc4C)cc3)N2)C(C)C)n1` (single isomer, unassigned) [Example 117.3]: 100 µM, no less than 400 µM and 217 µM.
Regarding `Cc1noc(C(C(=O)N2C[C@H](O)CC2C2=NC(=O)[C@](C)(c3ccc(-c4scnc4C)cc3)N2)C(C)C)n1` (single isomer, unassigned) [Example 117.4], the IC50 is 100 µM in assay [1] and no less than 400 µM at VHL Elongin B/C complex. Besides, binding in assay [2] was characterised by a dissociation constant (Kd) of 150 µM.
For `Cc1ncsc1-c1ccc([C@]2(C)NC(C3C[C@@H](O)CN3C(=O)C(c3cn(C)nn3)C(C)C)=NC2=O)cc1` (single isomer, unassigned) [Example 118.1], the IC50 in assay [1] was found to be 100 µM; on VHL Elongin B/C complex, 157 µM. Further, the Kd in assay [2] came out at 61.5 µM.
`Cc1ncsc1-c1ccc([C@]2(C)NC(C3C[C@@H](O)CN3C(=O)C(c3cn(C)nn3)C(C)C)=NC2=O)cc1` (single isomer, unassigned) [Example 118.2]: the IC50 in assay [1] stood at 0.939 µM; at VHL Elongin B/C complex, 0.418 µM. Moreover, the dissociation constant Kd in assay [2] stood at 0.128 µM.
Consider `Cc1ncsc1-c1ccc([C@]2(C)NC(C3C[C@@H](O)CN3C(=O)C(c3cn(C)nn3)C(C)C)=NC2=O)cc1` (single isomer, unassigned) [Example 118.3], for which the IC50 turned out to be 100 µM in assay [1] and 150 µM at VHL Elongin B/C complex. The Kd in assay [2] was found to be 21.2 µM.
In the case of `Cc1ncsc1-c1ccc([C@]2(C)NC(C3C[C@@H](O)CN3C(=O)C(c3cn(C)nn3)C(C)C)=NC2=O)cc1` (single isomer, unassigned) [Example 118.4], the values for the IC50 (in assay [1]; on VHL Elongin B/C complex) were 100 µM and no less than 400 µM, respectively. The Kd in assay [2] was 102 µM.
As to `Cc1cc(C(C(=O)N2C[C@H](O)CC2C2=NC(=O)[C@](C)(c3ccc(-c4scnc4C)cc3)N2)C(C)C)sn1` (single isomer, unassigned) [Example 119.1], the IC50 in assay [1] was 100 µM; on VHL Elongin B/C complex, no less than 400 µM. The same compound came in with a Kd in assay [2] of 150 µM.
`Cc1cc(C(C(=O)N2C[C@H](O)CC2C2=NC(=O)[C@](C)(c3ccc(-c4scnc4C)cc3)N2)C(C)C)sn1` (single isomer, unassigned) [Example 119.2]: the IC50 in assay [1] was 100 µM; on VHL Elongin B/C complex, no less than 400 µM. In assay [2], this compound returned a Kd of 150 µM.
With `Cc1cc(C(C(=O)N2C[C@H](O)CC2C2=NC(=O)[C@](C)(c3ccc(-c4scnc4C)cc3)N2)C(C)C)sn1` (single isomer, unassigned) [Example 119.3], the IC50 was found to be 71.1 µM in assay [1] and 72.4 µM at VHL Elongin B/C complex. Besides, binding in assay [2] was put at a Kd of 17.5 µM.
`Cc1cc(C(C(=O)N2C[C@H](O)CC2C2=NC(=O)[C@](C)(c3ccc(-c4scnc4C)cc3)N2)C(C)C)sn1` (single isomer, unassigned) [Example 119.4]: the IC50 in assay [1] is 100 µM; at VHL Elongin B/C complex, no less than 400 µM. This compound also displayed a Kd in assay [2] of 150 µM.
The corresponding values for `CC(=O)N1CCC[C@H]1C(=O)N1C[C@H](O)CC1C1=NC(=O)[C@](C)(c2ccc(-c3scnc3C)cc2)N1` (single isomer, unassigned) [Example 121.1] are 100 µM, 65.5 µM and 29.2 µM.
In the case of `Cc1ncsc1-c1ccc([C@]2(C)NC(C3C[C@@H](O)CN3C(=O)[C@@H]3CCCCN3S(C)(=O)=O)=NC2=O)cc1` (single isomer, unassigned) [Example 122.1], the 50% inhibitory concentration (IC50) in assay [1] is 100 µM; on VHL Elongin B/C complex it was no less than 400 µM. In assay [2], this compound came in with a Kd of no less than 150 µM.
Regarding `Cc1ncsc1-c1ccc([C@]2(C)NC(C3C[C@@H](O)CN3C(=O)[C@@H]3CCCCN3S(C)(=O)=O)=NC2=O)cc1` (single isomer, unassigned) [Example 122.2], the values for the IC50 (in assay [1]; at VHL Elongin B/C complex) were 39 µM and 16.7 µM, respectively. The same compound displayed a Kd in assay [2] of 6.83 µM.
`Cc1ncsc1-c1ccc([C@]2(C)NC(C3C[C@@H](O)CN3C(=O)[C@H](C(C)C)N3Cc4ccccc4C3=O)=NC2=O)cc1` (single isomer, unassigned) [Example 123.1]: the IC50 is 100 µM in assay [1] and no less than 400 µM at VHL Elongin B/C complex. In assay [2], this compound gave a Kd of 55.6 µM.
The corresponding values for `Cc1ncsc1-c1ccc([C@]2(C)NC(C3C[C@@H](O)CN3C(=O)[C@H](C(C)C)N3Cc4ccccc4C3=O)=NC2=O)cc1` (single isomer, unassigned) [Example 123.2] are 5.48 µM, 4.68 µM and 3.98 µM.

The values above are taken from patent US11242344B2, “(4-hydroxypyrrolidin-2-yl)-heterocyclic compounds and methods of use thereof” (Genentech, Inc., priority 2017, dated 2022).
